Data: paper PMC6588697, “Lugdunin amplifies innate immune responses in the skin in synergy with host- and microbiota-derived factors” (Nature Communications, 2019)
Values joined by “and” are separate entries in the source; they are usually repeats but may differ in a detail not shown here. Equal entries are not always repeated.

Tests used:
[1] = system: PBMCs; experiment: CXCL8 expression in PBMCs (qRT-PCR); type: cell-based, human; details: 5 h, two technical replicates
Experimental: (§1) Quantitative reverse transcription-polymerase chain reaction (qRT-PCR) was performed in 10 µL reaction volume with SYBR^TM Green PCR Master Mix (Thermo Fisher) according to the manufacturer’s instructions using a LightCycler 96 (Roche Life Science). The initial denaturation step was at 95 °C for 5 min, followed by 40 cycles with 10 s each for the denaturation step at 95 °C, the annealing at individual temperature, and the elongation at 72 °C. Primer sequences and respective annealing temperatures are listed in Supplementary Table 1.
Human PBMCs were isolated from the peripheral blood of healthy donors upon obtaining informed consent by Ficoll-Histopaque (Biochrom) gradient centrifugation. Cells were washed once in PBS and adjusted to a cell number of 1 × 10^6 mL^−1 in RPMI-1640 medium (Gibco/Life Technologies) containing 10% FBS (Biochrom/Merck Millipore). […]
(§2) 31 g+h+i: HNEpCs (b), HTEpCs (c) or PBMCs (d) were treated with increasing
(§3) 32 concentrations of lugdunin (grey bars) or 100 ng/mL Pam2Cys or Pam3Cys (white
(§4) 33 bars) as positive controls for 5 hours and subsequently expression of CXCL8 was
(§5) 34 analyzed and normalized to actin. Black bar: medium control. Shown is one
(§6) 35 representative experiment of three independent experiments with two technical
(§7) 36 replicates +/-s.e.m. Significant differences to control treatments were analyzed by
(§8) 37 ordinary one-way ANOVA followed by Dunnett’s multiple comparisons test (*P<0.05; […]

[2] = system: mouse skin; experiment: Immunohistochemistry of mouse skin sections (LL-37, MIP-2, MPO); type: in vivo
Experimental: For immunohistochemical stainings of mouse skin, […] tissue sections were de-paraffinized. For MPO staining, antigen retrieval was performed in EDTA buffer at pH 9 (Thermo Fisher Scientific) for 5 min, and for MIP-2 and LL-37, citrate buffer at pH 6 for 9 min was used. Antigen retrieval was performed in a pressure cooker before a slow cooling down of the samples in the buffer. Afterwards, tissue sections were washed in PBS and blocked in 5% donkey serum in PBS containing 0.05% Triton X-100 for 90 min. For MPO staining, tissue sections were subsequently incubated overnight at 4 °C in a humid chamber with a MPO-specific antibody (R&D Systems, Cat#AF3667) diluted 1:50 in a blocking buffer. For MIP-2 and LL-37 staining, tissue sections were first incubated with primary enhancer (Lab Vision™ UltraVision™ LP Detection System, Thermo Fisher Scientific) for 20 min at room temperature, washed, and then incubated with AP polymer (Lab Vision™ UltraVision™ LP Detection System, Thermo Fisher Scientific) for 30 min at room temperature in a humid chamber, followed by incubation with the primary antibodies MIP-2 (Thermo Scientific, Cat#701126, 1:10 in blocking buffer) and LL-37 (Novus Biologicals, Cat#NB100-98689, 1:200 in blocking buffer) overnight at 4 °C in a humid chamber. The next day, tissue sections were washed and incubated with a 1:250 dilution of alkaline phosphatase-coupled secondary antibody (Novus Biologicals) for 90 min in a humid chamber at room temperature. After washing in PBS, staining was performed by using the Lab Vision^TM liquid fast red substrate system (Thermo Fisher Scientific) according to the manufacturer’s instructions. After washing in water, hematoxylin–eosin staining (Agilent/Dako) was performed for 2 min. After another washing step in water, tissue sections were mounted with Kaiser’s glycerol gelatine (Merck).

[3] = system: HTEpCs; experiment: CXCL8 expression in HTEpCs (qRT-PCR); type: cell-based, human; details: 5 h, two technical replicates
Experimental: as §1, with “1. […]” for “1.”
as §2, §3, §4, §5, §6, §7, §8

Substance: Lugdunin
- CXCL8 fold induction ([1]; lugdunin 0.5 µM, sheet Supp Fig 1h): 0.8179 and 0.8236
- CXCL8 fold induction ([1]; lugdunin 1 µM): 1.223 and 1.275
- CXCL8 fold induction ([1]; lugdunin 2 µM): 2.085 and 1.84
- CXCL8 fold induction ([1]; lugdunin 3 µM): 2.121 and 2.305
- CXCL8 fold induction ([1]; lugdunin 5 µM): 3.021 and 3.221
- CXCL8 fold induction ([1]; lugdunin 10 µM): 3.494 and 3.593
- MPO-positive cells in mouse skin sections (IHC, in words) ([2]; epicutaneous application, Fig 3e): recruitment of MPO-positive cells into the dermis
- LL-37 in mouse skin sections (IHC, in words) ([2]; epicutaneous application, Supp Fig 1): expression of LL-37 in keratinocytes was confirmed
- MIP-2 in mouse skin sections (IHC, in words) ([2]; epicutaneous treatment, Fig 2f): MIP-2 production by keratinocytes in the epidermis and the hair follicles
- CXCL8 fold induction ([3]; lugdunin 0.5 µM, sheet Supp Fig 1g): 1.537 and 1.231
- CXCL8 fold induction ([3]; lugdunin 1 µM): 4.112 and 4.228
- CXCL8 fold induction ([3]; lugdunin 2 µM): 16.564 and 16
- CXCL8 fold induction ([3]; lugdunin 3 µM): 18.001 and 14.929
- CXCL8 fold induction ([3]; lugdunin 5 µM): 23.264 and 22.316
- CXCL8 fold induction ([3]; lugdunin 10 µM): 16.056 and 17.328
